Molecules are shown by their SMILES.

The test system of data set [1] is Sb-1. Briefly: microbe, parasite or virus in culture. It is filed as cell-based, poliovirus type-1. The note with it: Enterovirus C, Vero 76, read-out: Sb-1 EC50.
Data set [2] can be described thus: in vitro. The note with it: Syrian hamster (Mesocricetus auratus).
Data set [3] relates to Reo-1. Briefly: microbe, parasite or virus in culture. In kind it is cell-based, reovirus type-1. The following applies: Reovirus sp., BHK, read-out: Reo-1 EC50.
Data set [4] relates to CV-B5. Briefly: microbe, parasite or virus in culture. It is filed as cell-based, coxsackievirus B5. The following applies: Enterovirus B, CVB5, Vero 76, read-out: CV-B5 EC50.
Data set [5] in a line: in vitro. The following applies: African green monkey (Cercopithecus aethiops).
The test system of data set [6] is HSV-1. Briefly: microbe, parasite or virus in culture. In kind it is cell-based, human herpes 1. The following applies: Human alphaherpesvirus 1, Vero 76, read-out: HSV-1 EC50.
Data set [7] in a line: in vitro. The note with it: human.
The test system of data set [8] is VSV. Kind of data set: microbe, parasite or virus in culture. In kind it is cell-based. The following applies: Vesicular stomatitis virus, Vero 76, read-out: VSV EC50.
The test system of data set [9] is YFV. Kind of data set: microbe, parasite or virus in culture. It is filed as cell-based. The note with it: Yellow fever virus, BHK, read-out: YFV EC50.
Data set [10] concerns HIV-1. Briefly: microbe, parasite or virus in culture. The following applies: Human immunodeficiency virus 1, MT4, read-out: HIV-1 EC50.
Data set [11] deals with VV. Kind of data set: microbe, parasite or virus in culture. The note with it: Orthopoxvirus vaccinia, Vero 76, read-out: VV EC50. It is filed as cell-based.
The subject of data set [12] is RSV. Kind of data set: microbe, parasite or virus in culture. The following applies: human respiratory syncytial virus, Vero 76, read-out: RSV EC50. It is filed as cell-based, human respiratory syncytial virus.
In data set [13] the test system is BVDV. Briefly: microbe, parasite or virus in culture. It is filed as cell-based, bovine viral diarrhoea virus. The following applies: for EC50: Bovine viral diarrhea virus isolates and strains, MDBK, in Bos taurus, read-out: BVDV EC50.
Data set [14] can be described thus: in vitro. The following applies: cattle (Bos taurus).

Turning to `C[C@@]1(O)[C@H](O)[C@@H](CO)O[C@H]1n1ccc(N)nc1=O` [2′-C-methyl-cytidine, 2′-C-methylcytidine, reference compound], the EC50 in [1] was 7.3 ± 0.4 µM; in data set [3], 10 ± 1.2 µM; in [4] it was 18 ± 0.9 µM. Further, the CC50 in [2] and in data set [5] was more than 100 µM each time.

Regarding `Nc1nc2c(ncn2COCCO)c(=O)[nH]1` [Acycloguanosine, acycloguanosine, reference compound], in data set [6], the EC50 stood at 3 ± 0.2 µM. In [5], this compound came in with a CC50 of more than 100 µM.

As for `S=C(NCCc1c[nH]c2ccccc12)Nc1ccccc1` [Compound 1, 1-(2-(1H-Indol-3-yl)ethyl)-3-phenylthiourea], the EC50 in data set [1] is more than 64 µM; in data set [3] it was more than 48 µM; in data set [4] it was more than 64 µM; in data set [8], more than 64 µM; in [9], more than 48 µM; in [10], more than 31 µM. Also, the EC50 in data set [6] is more than 64 µM; in data set [11], more than 64 µM; in [12], more than 64 µM; in data set [13] it was more than 100 µM. For the same compound, the CC50 in data set [2] was 48 µM; in data set [7] it was 31 µM; in data set [5], 64 µM; in data set [14] it was more than 100 µM.

Consider `S=C(NCCc1c[nH]c2ccccc12)Nc1ccc(Cl)cc1` [Compound 4, 1-(2-(1H-Indol-3-yl)ethyl)-3-(4-chlorophenyl)thiourea], for which the 50% effective concentration (EC50) is more than 55 µM in data set [1]; more than 47 µM in [3]; more than 55 µM in data set [4]; more than 55 µM in data set [8]; more than 47 µM in data set [9]; more than 45 µM in data set [10]. The EC50 in [6] was more than 55 µM; in data set [11], more than 55 µM; in [12], more than 55 µM; in data set [13], more than 100 µM. Further, the CC50 in [2] is 47 µM; in [7], 45 µM; in data set [5] it was 55 µM; in data set [14], more than 100 µM.

For `O=C(NC(=S)NCCc1c[nH]c2ccccc12)c1ccccc1` [Compound 5, 1-(2-(1H-Indol-3-yl)ethyl)-3-benzoylthiourea], the EC50 is more than 29 µM in data set [1]; more than 34 µM in data set [3]; more than 29 µM in data set [4]; more than 29 µM in [8]; more than 34 µM in data set [9]; more than 38 µM in [10]. Besides, the EC50 in data set [6] is more than 29 µM; in data set [11], more than 29 µM; in data set [12] it was more than 29 µM; in data set [13], 20 ± 1.5 µM. Moreover, the CC50 in [2] was 34 µM; in data set [7], 38 µM; in data set [5] it was 29 µM; in data set [14], 67 µM. In addition, the “activity against BVDV (in words)” value in data set [13] was “showed activity”.

As for `S=C(NCCc1c[nH]c2ccccc12)Nc1cccc(Br)c1` [Compound 7, 1-(2-(1H-Indol-3-yl)ethyl)-3-(3-bromophenyl)thiourea], the melting point is 152 to 154 °C. In addition, in data set [1], the EC50 was more than 12 µM. This compound also came in with a CC50 in data set [2] of 10 µM. The EC50 in data set [3] is more than 10 µM. This compound showed a CC50 in data set [7] of 45 µM. For the same compound, the EC50 in data set [4] was more than 12 µM. The EC50 in data set [8] was more than 12 µM. For the same compound, the EC50 in data set [9] is more than 10 µM. In addition, the EC50 in data set [10] is more than 45 µM. In addition, the EC50 in data set [6] is more than 12 µM. In addition, the EC50 in data set [11] was more than 12 µM. In addition, the CC50 in [5] worked out at 12 µM. Also, in [12], the EC50 is more than 12 µM. Besides, in data set [13], the “activity against BVDV (in words)” value is “showed activity” and the EC50 stood at 20 ± 2 µM. Further, the CC50 in data set [14] came out at 55 µM.

On to `S=C(NCCc1c[nH]c2ccccc12)NC1CCCCC1` [Compound 9, 1-(2-(1H-Indol-3-yl)ethyl)-3-cyclohexylthiourea], for which the EC50 is more than 14 µM in [1]; more than 13 µM in data set [3]; more than 14 µM in data set [4]; more than 14 µM in data set [8]; more than 13 µM in [9]; more than 49 µM in data set [10]. Also, the EC50 in data set [6] is more than 14 µM; in [11] it was more than 14 µM; in [12], more than 14 µM; in data set [13], more than 55 µM. Further, the CC50 turned out to be 13 µM in data set [2], 49 µM in data set [7], 14 µM in data set [5] and 55 µM in [14].

As for `S=C(NCCc1c[nH]c2ccccc12)NCc1ccccc1` [Compound 10, 1-(2-(1H-Indol-3-yl)ethyl)-3-benzylthiourea], the EC50 in [1] was more than 100 µM; in data set [3], more than 52 µM; in data set [4] it was 30 ± 2.4 µM; in [8], more than 100 µM; in data set [9] it was more than 52 µM; in data set [10], more than 78 µM. The concentration giving a half-maximal response (EC50) in data set [6], in data set [11], in data set [12] and in data set [13] was more than 100 µM throughout. For the same compound, the CC50 was 52 µM in data set [2], 78 µM in data set [7], more than 100 µM in [5] and more than 100 µM in [14].

Compound `Fc1ccccc1NC(=S)NCCc1c[nH]c2ccccc12` [Compound 11, 1-(2-(1H-Indol-3-yl)ethyl)-3-(2-fluorophenyl)thiourea] had a melting point of 167 to 168 °C. In addition, the EC50 in data set [1] was more than 73 µM. The same compound yielded a CC50 in [2] of 34 µM. Also, in data set [3], the EC50 was more than 34 µM. In data set [7], the CC50 amounted to 48 µM. The EC50 in data set [4] was more than 73 µM. Further, the concentration for a half-maximal effect (EC50) in data set [8] is more than 73 µM. Besides, the EC50 in data set [9] is more than 34 µM. In addition, the concentration for a half-maximal effect (EC50) in data set [10] was more than 48 µM. In data set [6], the EC50 was more than 73 µM. Further, in data set [11], the EC50 was more than 73 µM. Besides, the CC50 in [5] was found to be 73 µM. For the same compound, the EC50 in [12] is more than 73 µM. The EC50 in data set [13] was more than 69 µM. The compound also returned a CC50 in [14] of 69 µM.

On to `Fc1cccc(NC(=S)NCCc2c[nH]c3ccccc23)c1` [Compound 12, 1-(2-(1H-Indol-3-yl)ethyl)-3-(3-fluorophenyl)thiourea], for which the melting point is 162 to 164 °C. The EC50 in [1] is more than 60 µM. The compound also came in with a CC50 in data set [2] of 16 µM. The EC50 in data set [3] is more than 16 µM. Moreover, the CC50 in data set [7] turned out to be 47 µM. For the same compound, the EC50 in [4] is more than 60 µM. In addition, the EC50 in [8] was more than 60 µM. Further, the concentration for a half-maximal effect (EC50) in data set [9] was more than 16 µM. The EC50 in data set [10] was more than 47 µM. The EC50 in data set [6] was more than 60 µM. Moreover, the EC50 in data set [11] is more than 60 µM. In data set [5], this compound showed a CC50 of 60 µM. Moreover, the EC50 in data set [12] was more than 60 µM. In data set [13], the EC50 was more than 49 µM. This compound also returned a CC50 in [14] of 49 µM.

`S=C(NCCc1c[nH]c2ccccc12)Nc1ccccc1Cl` [Compound 13, 1-(2-(1H-Indol-3-yl)ethyl)-3-(2-chlorophenyl)thiourea] yielded a melting point of 170 to 172 °C. For the same compound, the EC50 in data set [1] was more than 53 µM. Also, in data set [2], the CC50 stood at 11 µM. Also, the EC50 in data set [3] is more than 11 µM. The same compound came in with a CC50 in [7] of 47 µM. The 50% effective concentration (EC50) in [4] worked out at 12 ± 0.9 µM. Besides, the EC50 in [8] was more than 53 µM. In data set [9], the EC50 is more than 11 µM. The EC50 in data set [10] was more than 47 µM. Also, the EC50 in data set [6] was more than 53 µM. Moreover, the EC50 in [11] was more than 53 µM. In data set [5], this compound yielded a CC50 of 53 µM. In addition, in [12], the EC50 is more than 53 µM. In addition, in data set [13], the EC50 was more than 49 µM. Besides, the CC50 in [14] was 49 µM.

Consider `Fc1ccc(NC(=S)NCCc2c[nH]c3ccccc23)cc1` [Compound 17, 1-(2-(1H-Indol-3-yl)ethyl)-3-(4-fluorophenyl)thiourea], for which the EC50 in data set [1] is more than 53 µM; in data set [3] it was more than 30 µM; in data set [4], more than 53 µM; in [8], more than 53 µM; in data set [9], more than 30 µM; in data set [10], more than 44 µM. Further, the EC50 in data set [6], in data set [11], in [12] and in data set [13] was more than 53 µM throughout. For the same compound, the CC50 in data set [2] stood at 30 µM; in data set [7], 44 µM; in [5], 53 µM; in data set [14] it was 53 µM.

For `Cc1ccc(NC(=S)NCCc2c[nH]c3ccccc23)cc1Cl` [Compound 23, 1-(2-(1H-Indol-3-yl)ethyl)-3-(3-chloro-4-methylphenyl)thiourea], the melting point was 161 to 163 °C. In addition, the EC50 in data set [1] was more than 17 µM. In data set [2], this compound gave a CC50 of 10 µM. Also, in data set [3], the EC50 is more than 10 µM. In addition, the CC50 in data set [7] was found to be 44 µM. Also, the EC50 in data set [4] was more than 17 µM. For the same compound, the EC50 in [8] was more than 17 µM. The EC50 in data set [9] is more than 10 µM. Further, the EC50 in data set [10] is more than 44 µM. For the same compound, the EC50 in [6] is more than 17 µM. Besides, the EC50 in [11] was more than 17 µM. In data set [5], the CC50 was found to be 17 µM. In addition, the EC50 in [12] was more than 17 µM. Further, in data set [13], the EC50 was more than 25 µM. In data set [14], this compound displayed a CC50 of 25 µM.

Turning to `COc1c(C)c2c(c(O)c1C/C=C(\C)CCC(=O)O)C(=O)OC2` [Mycophenolic acid, mycophenolic acid, reference compound], the EC50 in [11] is 1.5 ± 0.2 µM. The compound further returned a CC50 in data set [5] of 13 µM.

Broadly, the EC50 is the concentration at which the effect is half-maximal. By melting point is commonly meant the temperature, or range, at which the solid turns liquid.

Source of the values: PMC6222422, “Synthesis and Biological Evaluation of Novel Indole-Derived Thioureas” (Molecules : A Journal of Synthetic Chemistry and Natural …, 2018).
